# Results reported in PMC8646019, “Azvudine is a thymus-homing anti-SARS-CoV-2 drug effective in treating COVID-19 patients” (Signal Transduction and Targeted Therapy, 2021).
# Where “and” joins values, the source holds several entries; their conditions need not be identical. Equal values may be shown once. Entries after “also recorded” stand apart in the source; their conditions may differ.
# Tests used:
# [1] = test system: SARS-CoV-2; assay: SARS-CoV-2 infected rhesus macaques treated with FNC (viral load, blood tests, histology, X-ray); type: in vivo
# Method: RM monkeys were used to learn whether FNC could inhibit SARS-CoV-2 in vivo. In this experiment, eight monkeys were first infected with SARS-CoV-2 using the protocol established previously with an infection dose of 10^6 pfu per monkey.[18] Among the eight animals, four were untreated (as vehicle control; two male and two female) and four were treated with FNC (0.07 mg/kg, qd, oral; two male and two female) 12 h post-infection. The treatment continued for 7 days from Day 1 to Day 7. The experiment was terminated on Day 8 after viral infection. Clinical manifestations, blood indications, and viral load in swabs and blood samples was monitored during the course, and organs were examined after euthanasia at 8 dpi. The experimental protocol is shown in Supplementary Fig. 5.
# Fig. 3 FNC inhibited SARS-CoV-2 and treated COVID-19 in vivo. Eight RM monkeys were inoculated with SARS-CoV-2, followed by vehicle or FNC treatment 12 h post infection and continued for 7 days (see Materials and methods). […] The regions of interest (ROI) are boxed in white, and their magnified photos are shown below. Scale bars, 500 µm (up) and 20 µm (below). c White blood cells (WBC), neutrophil granulocytes (NG), monocytes (MC), and platelets basically remained stable by FNC after SARS-CoV-2 infection. d FNC increased the percent of lymphocytes, alleviated CRP production, and protected the heart and liver functions. Data are presented as mean ± SEM (n = 4); *p < 0.05, infected monkeys in FNC group vs. infected monkeys in the untreated group, by Mann–Whitney U test. CRP C reaction protein, AST aspartate aminotransferase TEXT PRINTED IN THE PICTURE: (a) FNC: Lung Viral load (copies /g): ND (17031); Lung Viral load (copies /g): ND (17374); Thymus Viral load (copies /g): ND (17017); Thymus Viral load (copies /g): ND (17031); Thymus Viral load (copies /g): ND (17368); Thymus Viral load (copies /g): ND (17374) DOUBTS OF THE COPYIST ABOUT THIS PICTURE: Panel a: the only printed results are "ND" labels over single animal numbers. The red ones (FNC group) are given. The black ND labels of the untreated group (Lung 17032; Thymus 17032, 17041) are left out because no substance was given. / Panel d: 0.083 printed in the CRP and AST plots is taken as a p value and left out.
# The rhesus macaques’ experiment was done by following the method described before^1,2. Briefly, healthy rhesus macaques (4 male and 4 female, 3-4 years old) were used for the study. SARS-CoV-2 was from the Center of Diseases Control, Guangdong, China, and amplified in the Vero-E6 cells. Animal groups and experimental schedules were outlined in Fig S4. We inoculated rhesus macaques with 10^6 pfu/ml SARS-CoV-2 intratracheally (0.5ml) and intranasally (0.5ml). FNC (0.07mg/kg, qd, orally) was given 12 h after viral inoculation and continued for 7 days. The animals were monitored daily for physical examination. Chest X-ray radiograph of the anaesthetized monkeys was done with 55-75v and 8-12.5mA with the Mobile digital medical X-ray photography system (MobileCooper, Browiner China).
# Quantification of viral genome in swabs and tissue samples was done as described before^1. Viral genome copy in samples were quantified with real time RT-PCR, using TaqMan Fast Virus 1-Step Master Mix (ThermoFisher, US) and conducted on the CFX384 Touch Real-Time PCR Detection System (Biorad, US). Purified RNA of SARS-CoV-2 served as a standard curve. The operation conditions of RT-PCR were set as following: 25℃ for 2min, 50℃ for 15min, 95℃ for 2min, then 40 cycles at 95℃ 5sec and 60℃ 31sec. Primers/probe specific for the NP gene were synthesized based on sequences from China CDC: Target-2-F:GGGGAA […],
# By the end of the experiment, major organs of the monkeys were taken and checked with naked eye examination. Tests for blood biochemistry and hematology indexes, including lymphocyte analysis and organ function assays, were done based on previous reports^1,2. […]
# [2] = test system: thymus cells; type: in vivo, rhesus macaques
# [3] = test system: PBMC; type: in vivo, rhesus macaques; conditions: n = 4 for each group, with time, vs untreated
# [4] = test system: SARS-CoV-2; assay: Clinical trial of FNC on compassionate use in COVID-19 patients
# [5] = FNC-treated monkeys vs untreated
# [6] = FNC-treated monkey #17368, scRNA-seq
# [7] = drug combination no: FNC only, N = 15
# [8] = drug combination no: FNC only, N = 15, mean ± SD
# [9] = drug combination yes: FNC plus TCM or/and other antivirals, N = 16, mean ± SD
# [10] = individual COVID-19 patient (one per table line)
# [11] = moderate COVID-19, n = 26, mean ± SD
# [12] = severe COVID-19, n = 5, mean ± SD
compound,measurement,setting,value
"[N-]=[N+]=N[C@]1(CO)O[C@@H](n2ccc(N)nc2=O)[C@@H](F)[C@@H]1O [FNC, 2′-deoxy-2′-β-fluoro-4′-azidocytidine]",CK and AST levels,[1]; [5],"decreased CK and AST levels, though insignificantly"
same,body temperature and body weight changes after SARS-CoV-2 infection,[1]; [5],not different
same,lesions in the lung (HE staining),"[1]; RM monkeys, FNC 0.07 mg/kg qd oral vs untreated",reduced the lesions substantially
same,"viral load in nasal swabs, blood, lungs and thymus","[1]; RM monkeys, FNC 0.07 mg/kg qd oral, 7 days, vs untreated",significantly reduced viral load
same,ground-glass opacities in chest X-ray,"[1]; RM monkeys, FNC 0.07 mg/kg, qd, orally",lessened ground-glass opacities
same,viral load in the thymus,"[1]; four virus (+) monkeys treated with FNC, termination of the experiment",negative
same,Proportion of B cells in thymus,[2]; [6],4.1%
same,Proportion of CD4 cells in thymus,[2]; [6],17.5%
same,Proportion of CD8 cells in thymus,[2]; [6],22.8%
same,Proportion of NKT cells in thymus,[2]; [6],4.6%
same,"expression of IL-4, IL-13, and IL-10 in the thymus cells",[2]; FNC-treated monkey #17368 vs untreated #17041,elevated
same,"percentage of CD3+, CD4+, and CD8+ cells in the peripheral blood",[3],increased
same,Recovery rate,[4]; all 31 COVID-19 patients,100% (31/31)
same,"Time from FNC treatment to SARS-CoV-2 negative conversion, median",[4]; all 31 COVID-19 patients,3.0 days
same,"Time from FNC treatment to SARS-CoV-2 negative conversion, range",[4]; all 31 COVID-19 patients,1 to 9 days
same,"Time from FNC treatment to discharge from the hospital, average",[4]; all 31 COVID-19 patients,9.00 ± 4.93 days and 9.00 days
same,"Time from FNC treatment to discharge from the hospital, median",[4]; all 31 COVID-19 patients,9.0 days
same,"Time from FNC treatment to discharge from the hospital, range",[4]; all 31 COVID-19 patients,2 to 25 days
same,deaths in the trial,[4]; all 31 COVID-19 patients,No patients died
same,hospital discharge rate,[4]; all 31 COVID-19 patients,100%
same,"viral ribonucleic acid negative conversion, share of patients",[4]; all 31 COVID-19 patients,100%
same,"Time from FNC treatment to SARS-CoV-2 negative conversion, average","[4]; all 31 COVID-19 patients, oral FNC 5 mg qd",3.29 ± 2.22 days and 3.29 days
same,Recovery rate,[4]; [7],100% (16/16)
same,Side effect,[4]; [7],13.3% (2/15)
same,Time from FNC treatment to SARS-CoV-2 negative conversion,[4]; [8],2.13 ± 1.30 days
same,Time from FNC treatment to discharge from the hospital,[4]; [8],8.67 ± 6.24 days
same,Recovery rate,"[4]; drug combination yes, N = 16",100% (16/16)
same,Side effect,"[4]; drug combination yes, N = 16",18.8% (3/16)
same,Time from FNC treatment to SARS-CoV-2 negative conversion,[4]; [9],4.38 ± 2.39 days
same,Time from FNC treatment to discharge from the hospital,[4]; [9],9.31 ± 3.46 days
same,Side effect,[4]; [10],"Dizziness (fist day); also recorded: Low counts of Platelet and Fibrinogen (first day); also recorded: Dizziness, Nausea, Vomit (first day); also recorded: Dizziness, Insomnia, Vomit (first day)"
same,Time from FNC treatment to discharge from the hospital,[4]; [10],6 days and 7 days and 5 days
same,Time from FNC treatment to SARS-CoV-2 negative conversion,[4]; individual COVID-19 patient (one per table line; dosage and combination treatment as in the line),6 days
same,Recovery rate,"[4]; moderate COVID-19, n = 26",100% (26/26)
same,Time from FNC treatment to SARS-CoV-2 negative conversion,[4]; [11],3.35 ± 2.13 days
same,Time from FNC treatment to discharge from the hospital,[4]; [11],9.65 ± 4.91 days
same,Recovery rate,"[4]; self-controlled comparison, 11 patients",100% (11/11)
same,Time from drug treatment to SARS-CoV-2 negative conversion,"[4]; self-controlled comparison, 11 patients first treated with known antivirals, then FNC alone, mean ± SD",1.73 ± 0.79 days
same,Time from FNC treatment to discharge from the hospital,"[4]; self-controlled comparison, 11 patients, mean ± SD",9.09 ± 7.27 days
same,Recovery rate,"[4]; severe COVID-19, n = 5",100% (5/5)
same,Side effect,"[4]; severe COVID-19, n = 5",40% (2/5)
same,Time from FNC treatment to SARS-CoV-2 negative conversion,[4]; [12],3.00 ± 2.92 days
same,Time from FNC treatment to discharge from the hospital,[4]; [12],5.60 ± 3.78 days
